Key:
[1] = Tolerability of abomasal infusion in sheep; type: in vivo; details: DCD 15 g/day, 4 MP 1 g/day, Agrotain 80 g/day
Text: (§1) Sheep were then transferred indoors to metabolism crates.

nitrate leaching = experiment: Lysimeter study: nitrate leaching; details: inhibitor added to cow urine, 1.5 g DCD/m^2 or 0.1 g 4 MP/m^2; 104 days
Text: (§2) Undisturbed soil lysimeters (30 cm diameter×50 cm depth) were collected from a pastoral site near Lake Taupo which had been under a cutting regime with no grazing animals for over 18 months. The soil was a Taupo sandy loam (yellow brown pumice or allophanic soil). A gap (c. 1 cm) between the side of the soil cores and the PVC lysimeter housing was filled with Vaseline to stop possible edge-flow of water or urine. The lysimeters were transferred to a lysimeter facility (near Hamilton, New Zealand) where they were buried in soil so that the soil surface in the lysimeter was at ground level. However, the lysimeter casing extended about 4 cm above the soil surface to stop any lateral surface loss.
There were five replicate lysimeters with the following treatments included: a control, urine, urine+DCD, and urine+4 MP. Urine was collected from Jersey dairy cows, stored at 4° C. and applied to the lysimeters within 4 days. The urine solution was applied at 10 L/m^2 giving the equivalent of 800 kg N/ha (similar to that for a cow urine patch). […]
Nitrate leaching from lysimeters was measured by collection of leachate draining from the base of each lysimeter. This drainage water was collected at regular intervals and analysed for nitrate concentration. […]

[2] = test system: nitrification of urine/urea-N in soil; experiment: Soil incubation with urine from abomasally infused sheep: nitrification; details: urine from sheep with abomasal infusion, DCD 15 g/day or 4 MP 1 g/day; soil incubated at 20° C.
Protocol: (§3) This was determined by firstly measuring the urea concentration in urine samples and adjusting the urine volume (or in a few samples with low concentrations, urea was added) so that the same rate of urea-N was added to soil (100 g) in plastic bags. The soil was a Horotiu silt loam derived from volcanic ash taken from a pastoral site which had been ungrazed for over 6 months so that no residual animal urine was present.
(§4) The urine-treated soil samples were incubated at 20° C. and sub-samples were removed at regular intervals over time for analysis of ammonium and nitrate in 2M KCl extracts using standard methods. The level of inhibition of nitrification was evident from less nitrate formation (FIG. 4B; P<0.001 at all incubation times) and higher ammonium levels (FIG. 4A; P<0.001 at all incubation times). Inhibition of nitrification was higher for DCD than for 4 MP (P<0.01), with an average reduction in nitrate production relative to the control of 96 and 51%, respectively (FIG. 4C). This difference may have been influenced by the rate of inhibitor used.

nitrous oxide emissions = experiment: Lysimeter study: nitrous oxide emission
Text: as §2
There were five replicate lysimeters with the following treatments included: a control, urine, urine+DCD, and urine+4 MP. Urine was collected from Jersey dairy cows, stored at 4° C. and applied to the lysimeters within 4 days. The urine solution was applied at 10 L/m^2 giving the equivalent of 800 kg N/ha (similar to that for a cow urine patch). For the DCD and 4 MP treatments, the inhibitor compounds were dissolved in the urine prior to application to represent urine excreted from inhibitor-administered animals. Inputs in these treatments were equivalent to 1.5 g DCD/m^2 and 0.1 g 4 MP/m^2.
Lysimeters were left to stabilise for several weeks after installation in the facility. Treatments were applied in May 2004. Pasture on the lysimeters was trimmed prior to treatment application and was regularly cut at heights and intervals similar to that under dairy cow grazing.
Nitrous oxide (N2O) emission from the main lysimeters was measured using a standard closed chamber method. Chambers were placed on the lysimeters at regular intervals during the study for periods of one hour at around midday. Gas samples were collected at 0, 30 and 60 minutes from the headspace of the chambers for N2O analysis by gas chromatography. […] Cumulative N2O emissions over the measurement period averaged 1.2 and 0.5 kg N/ha for the urine and urine+DCD treatments, giving a 57% reduction from DCD.

[3] = DCD in urine of sheep, abomasal infusion (HPLC); type: in vivo
Text: as §1
Infusion of treatments continued for 4 days, after which there was an 11 day non-treatment clearance/rest period before repeating this phase. Sheep allocation to treatments changed over each period in a statistical cross-over design (defined by statisticians) so that 11 sheep had been subjected to each of 3 treatments (control, DCD and 4 MP), and so that within- and between-sheep variability could be evaluated.
Presence of DCD in urine samples was determined using high-performance liquid chromotography. […] There was some variability between sheep in DCD concentrations in urine, but this reflected differences in urination volumes (FIG. 3) so that there was much less difference in the amount of DCD excreted per urination. Concentrations of DCD in urine declined to negligible levels within 7 days after ceasing infusion (FIG. 2).

[4] = DCD in urine of dairy heifers drenched daily; type: in vivo; details: daily drench
Text: In addition, in a separate study, dairy heifers were drenched daily with a DCD solution.

[5] = test system: nitrification inhibition in soil; experiment: Laboratory soil incubation with urine from DCD-treated cows
Protocol: A laboratory incubation experiment was set up to confirm that the DCD contained in urine from DCD-treated cows retained its nitrification inhibition properties after application to soil. Urine from DCD-treated cows was compared to urine from non-treated cows spike with varying rates of DCD.

[6] = test system: nitrification of urine/urea-N in soil; experiment: Soil incubation with urine from ruminally infused sheep: nitrification; details: urine from sheep with ruminal infusion of DCD 15 g/day
Protocol: as §3, §4
(§5) The 12 sheep were randomly allocated to one of 2 treatments; water infusion (Control) or DCD at 15 g/day (DCD group). Experimental methodology was the same as for the abomasal infusion study in that there was a 4 day period of continuous infusion followed by an 11 day non-treatment clearance/rest period.

[7] = test system: conversion of nitrogen containing compounds; details: cited from earlier work
[8] = Freezing of urine: presence and activity of inhibitors; type: physicochemical; details: urine frozen at −20° C.
Text: During each infusion period the sheep were housed in metabolism crates to allow daily collection of urine and faeces samples. Single urination event samples were also collected from each sheep every day and were frozen for subsequent analysis of inhibitor content and for inhibitory activity in soil.

[9] = DCD in urine of sheep, ruminal infusion (HPLC); type: in vivo
Protocol: as §5
Presence of DCD in urine samples was determined using high-performance liquid chromotography. […] However, concentrations of DCD in urine were lower at day 1 of infusion than days 2-4, as expected because of time for rumen processing. Levels declined after ceasing infusion and were negligible within 7 days (FIG. 5).

[10] = Excretion efficiency of DCD in sheep; type: in vivo
[11] = Excretion efficiency of DCD in non-lactating dairy cows (metabolism stall study); type: in vivo
Protocol: The efficiency of excretion of DCD in urine relative to DCD administered to animals was determined in a metabolism stall study involving five non-lactating dairy cows. The study was conducted on the DairyNZ Lye Farm, near Hamilton, New Zealand.
Each cow was fed a diet of pasture silage.
The five cows were administered DCD via addition to the pasture silage feed at a dosage rate was 30 g/animal/day.
Animal waste collectors were fitted to animals and configured to collect urine and dung separately. The animal waste was analysed for DCD concentration using known analysis techniques.

[12] = cows, 30 g/animal/day in feed, at equilibrium

## Cc1cn[nH]c1 [4 MP, 4 methylpyrazole]
[1]
  effect of infusion on sheep (live-weight changes, body condition, general bodily function, feed intake): no adverse effect
Nitrate leaching
  reduction in cumulative nitrate leaching versus urine treatment: 71%
[2]
  average reduction in nitrate production relative to the control: 51%
Nitrous oxide emissions; inhibitor added to urine, lysimeters
  effect on nitrous oxide emissions: reducing

## N#CN=C(N)N [DCD, dicyandiamide]
[1]
  effect of infusion on sheep (live-weight changes, body condition, general bodily function, feed intake): no adverse effect
Nitrate leaching
  reduction in cumulative nitrate leaching versus urine treatment: 56%
[3]; DCD 15 g/day abomasal infusion, versus control, P<0.001
  DCD concentration in urine during the infusion period: highly significant increase
[3]; abomasal infusion 15 g/day
  time for DCD in urine to decline to negligible levels after ceasing infusion: ≤ 7 days
[4]
  DCD concentration in urine over a 90 day treatment period: remained relatively constant
[5]; FIG. 11 legend
  DCD in urine from DCD-treated cows, measured rate equivalent: 51 kg DCD/ha
[5]; laboratory incubation
  nitrification inhibition in soil of DCD in urine from treated cows versus urine spiked with an equivalent level of DCD: same level of nitrification inhibition
[6]
  average reduction in nitrate production: 81%
[7]; DCD rate on land approximately 5 kg/ha
  effectiveness at a rate of approximately 5 kg/ha: relatively ineffective
[7]; application to land, most soils, rainfall below about 1500 mm/year
  improvement at rates in excess of 10 kg/ha compared to 10 kg/ha: negligible improvements
[2]
  average reduction in nitrate production relative to the control: 96%
[8]
  effect of freezing urine on presence or activity: no effect
[9]; DCD 15 g/day ruminal infusion, 4 days
  DCD excretion in urine over the infusion period: high levels of DCD were absorbed and excreted in urine in an unaltered form
[9]; ruminal infusion 15 g/day
  time for DCD in urine to become negligible after ceasing infusion: ≤ 7 days
Nitrous oxide emissions; urine+DCD versus urine
  reduction in cumulative N2O emissions: 57%
Nitrous oxide emissions; urine+DCD, 1.5 g DCD/m^2, urine alone 1.2
  cumulative N2O emissions over the measurement period: 0.5 kg N/ha
[10]
  efficiency of transfer to urine: approximately 86%
[11]; cattle such as beef or dairy
  efficiency of excretion in urine: 80-81%
[11]; [12]
  DCD administered recovered in dung: 10%
  DCD administered recovered in urine: 81%
